We go through three compounds from article PMC2825274 (PLoS ONE, 2010).

≈ marks a conversion by molar mass, not a printed value. Where “and” joins values, the source holds several entries; their conditions need not be identical. Identical values can stand only once.

Common to all, as to assay type: cell-based, influenza A virus
Experiment [1] relates to influenza A/California/10/09 (H1N1) (CA10), S31N amantadine-resistant.
In experiment [2] the test system is A/Mississippi/3/01 (H1N1) H274Y (MS H274Y) oseltamivir-resistant.
Experiment [3] has as its system A/New Caledonia/20/99 (H1N1) V27A (NC V27A).
In experiment [4] the test system is A/Wisconsin/67/05 (H3N2) S31N (WI S31N).
The subject of experiment [5] is A/Hawaii/21/07 (H1N1) H274Y (HI H274Y).

Take `NC(=O)c1ncn([C@@H]2O[C@H](CO)[C@@H](O)[C@H]2O)n1` [Ribavirin]: in experiment [1], the “Fold Reduction in EC50 Compared to (B)” value was found to be 1.5 and the “Fold Reduction in EC50 Compared to (C)” value came out at 2.2. In experiment [2], this compound returned an EC50 of 3.6 µg/mL (≈ 14.7 µM).
As to `NC12CC3CC(CC(C3)C1)C2` [Amantadine], in experiment [3], the “activity as a single agent” value is given as “no activity” and the “amantadine concentration at which the increase in synergy of the TCAD regimen was observed” value was 0.32 µg/mL. Moreover, in experiment [1], the “Fold Reduction in EC50 Compared to (A)” value was 1.8 and 2.0 and 3.2; the “Fold Reduction in EC50 Compared to (B)” value is given as 1.7; the “Fold Reduction in EC50 Compared to (C)” value is reported as 1.6; the “amantadine concentration with significant contribution to the synergy of the TCAD regimen” value is no less than 0.32 µg/mL. The “contribution to the total synergy of the TCAD regimen” value (“contribution to the total synergy” below) in experiment [1] worked out at 44%. The compound also registered an EC50 in experiment [2] of 0.060 µg/mL (≈ 0.397 µM). Besides, in experiment [4], the “activity as a single agent” value is given as “no activity” and the “amantadine concentration at which the increase in synergy of the TCAD regimen was observed” value is 1 µg/mL.
For the compound Oseltamivir carboxylate, in experiment [5], the “Fold Reduction in EC50 Compared to (B)” value worked out at 3.3, the “Fold Reduction in EC50 Compared to (C)” value came out at 4.2, the “antiviral activity as a single agent” value was “no antiviral activity” and the “contribution to the total synergy” value was found to be 83%. In experiment [5], the “fold reduction in susceptibility” value came to 300 fold and the “oseltamivir carboxylate concentration from which it contributed to the synergy of the TCAD regimen” value is no less than 0.32 µg/mL. Besides, in experiment [1], the “Fold Reduction in EC50 Compared to (B)” value came to 6.5 and the “Fold Reduction in EC50 Compared to (C)” value is listed as 6.5. In experiment [2], the EC50 was found to be 73 µg/mL, the “Fold Reduction in EC50 Compared to (A)” value is given as 21, the “Fold Reduction in EC50 Compared to (B)” value was greater than 29 and the “Fold Reduction in EC50 Compared to (C)” value was greater than 29. For the same compound, in experiment [2], the “antiviral activity as a single agent” value is “no antiviral activity”, the “contribution to the total synergy” value is 76%, the “fold reduction in susceptibility” value is 1480 fold and the “oseltamivir carboxylate concentration from which it contributed to the synergy of the TCAD regimen” value was no less than 0.1 µg/mL.
